# Laboratory results from publication PMC8802628, “Selective activation of PFKL suppresses the phagocytic oxidative burst” (Cell, 2021).
# Columns and labels:
# [1] = biological target: T1, PFKL(K315R) (PFKL−pocket) (Homo sapiens, UniProt P17858, K315R); test: Recombinant PFKL−pocket activity assay; format: biochemical; settings: for EC50: pH 7.5, 3.1 mM ATP, 4 mM F6P, mean ± SEM, read-out: EC50, activation of PFKL−pocket
# T1 construct: made in house; host or cells: Sf9 insect cells (baculovirus)
# T1 sequence (P17858 1-780 K315R): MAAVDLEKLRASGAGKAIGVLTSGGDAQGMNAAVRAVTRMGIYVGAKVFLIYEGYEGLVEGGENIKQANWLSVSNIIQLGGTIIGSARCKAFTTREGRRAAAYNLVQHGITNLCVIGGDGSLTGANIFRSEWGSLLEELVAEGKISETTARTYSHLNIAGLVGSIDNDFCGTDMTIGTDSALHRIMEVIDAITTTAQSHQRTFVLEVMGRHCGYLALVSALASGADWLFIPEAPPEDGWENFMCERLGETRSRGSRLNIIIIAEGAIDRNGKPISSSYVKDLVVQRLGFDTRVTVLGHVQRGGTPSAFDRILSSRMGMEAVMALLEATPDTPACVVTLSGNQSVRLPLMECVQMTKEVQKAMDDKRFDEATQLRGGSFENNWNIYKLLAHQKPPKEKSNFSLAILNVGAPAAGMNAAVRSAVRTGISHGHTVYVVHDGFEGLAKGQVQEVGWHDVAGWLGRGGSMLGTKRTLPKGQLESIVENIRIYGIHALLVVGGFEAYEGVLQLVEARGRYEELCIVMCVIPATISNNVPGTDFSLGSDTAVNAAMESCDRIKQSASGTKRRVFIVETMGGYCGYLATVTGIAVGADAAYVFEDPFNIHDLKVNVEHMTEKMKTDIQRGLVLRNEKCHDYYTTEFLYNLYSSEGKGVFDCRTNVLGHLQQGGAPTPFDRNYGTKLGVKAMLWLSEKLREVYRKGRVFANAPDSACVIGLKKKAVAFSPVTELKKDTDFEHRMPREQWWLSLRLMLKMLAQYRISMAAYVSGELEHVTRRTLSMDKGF
# Excerpt: (§1) Recombinant N-terminal His-tagged human PFKL (NP_002617), PFKM (NP_000280), and PFKP (NM_002627.4) were generated as described ([Webb et al., 2015], [2017]). Point mutants of PFK1 were generated using the QuikChange Lightning kit (Aligent).
# (§2) His-tagged PFK1 was expressed and purified as described with slight modifications ([Webb et al., 2015], [2017]). Briefly, baculovirus was generated using the Bac-to-Bac Expression system (Invitrogen). PFK1 was expressed in 2-5 × 10^6 sf9 cells at a multiplicity of infection of two for 48 h. Cells were lysed in 20 mM HEPES, pH 7.5, 80 mM potassium phosphate, 1 mM 2-mercapentoethanol, 10% glycerol, 10 mM imidazole, and EDTA-free Protease Inhibitor Cocktail (Abcam) with a Dounce homogenizer. The soluble lysate was incubated with HisPur cobalt resin (ThermoFisher Scientific). The resin was washed with 5 bead volumes lysis buffer, 10 bead volumes lysis buffer containing 2 M NaCl, and 5 further bead volumes lysis buffer. PFK1 was eluted in lysis buffer containing 100 mM imidazole. Fractions containing protein were pooled, passed over a desalting column equilibrated in freezing buffer [20 mM HEPES pH 7.5, 1 mM DTT, 500 μM ammonium sulfate, 5% glycerol, 1 mM ATP, and 100 μM EDTA] and concentrated using an Amicon Ultracel-30K Centrifugal Filter Unit (MilliporeSigma). Protein was quantified using a Bradford Protein Assay kit (ThermoFisher Scientific), and aliquotes frozen in liquid nitrogen for storage at −80°C.
# (§3) PFK1 activity was determined using the rate of FBP production via an auxiliary enzyme assay adapted to a 96-well format ([Brüser et al., 2012]; [Webb et al., 2015]). The auxiliary enzymes aldolase, triosephosphate isomerase, and glycerol phosphate dehydrogenase were purchased from MilliporeSigma as ammonium sulfate slurries and desalted using an Amicon Ultracel-10K Centrifugal Filter Unit. For assays containing FBP, the rate of ADP production was determined using the auxiliary enzymes pyruvate kinase (PK) and lactate dehydrogenase (LDH) (MilliporeSigma) in a buffer containing 250 μM phosphoenolpyruvic acid, […] NADH, 50 mM HEPES pH 7.5, 100 mM KCl, 1 mM DTT, and effector concentrations as described in the text. The temperature was equilibrated to 25°C for 5 min before initiating the reaction 10 mM MgCl2. Absorbance at 340 nm was measured using a Varioskan LUX Multimode microplate reader (ThermoFisher). Kinetic parameters were generated by nonlinear regression analysis using Prism (GraphPad Software) and are the mean of a minimum of three measurements from two independent preparations of protein. One unit of activity was defined as the amount of enzyme that catalyzed the formation of 1 μmol of fructose 1,6-bisphosphate per min at 25°C. Assays for PFKM were performed at pH 7.0 due to the pH-dependence of ATP inhibition ([Trivedi and Danforth, 1966]).
# human PFKM = biological target: T2, human PFKM (Homo sapiens, UniProt P08237); test: Recombinant PFKM activity assay; format: biochemical; settings: for activation of PFKM: at concentrations up to 100 μM
# T2 construct: made in house; host or cells: Sf9 insect cells (baculovirus)
# T2 sequence (P08237 1-780): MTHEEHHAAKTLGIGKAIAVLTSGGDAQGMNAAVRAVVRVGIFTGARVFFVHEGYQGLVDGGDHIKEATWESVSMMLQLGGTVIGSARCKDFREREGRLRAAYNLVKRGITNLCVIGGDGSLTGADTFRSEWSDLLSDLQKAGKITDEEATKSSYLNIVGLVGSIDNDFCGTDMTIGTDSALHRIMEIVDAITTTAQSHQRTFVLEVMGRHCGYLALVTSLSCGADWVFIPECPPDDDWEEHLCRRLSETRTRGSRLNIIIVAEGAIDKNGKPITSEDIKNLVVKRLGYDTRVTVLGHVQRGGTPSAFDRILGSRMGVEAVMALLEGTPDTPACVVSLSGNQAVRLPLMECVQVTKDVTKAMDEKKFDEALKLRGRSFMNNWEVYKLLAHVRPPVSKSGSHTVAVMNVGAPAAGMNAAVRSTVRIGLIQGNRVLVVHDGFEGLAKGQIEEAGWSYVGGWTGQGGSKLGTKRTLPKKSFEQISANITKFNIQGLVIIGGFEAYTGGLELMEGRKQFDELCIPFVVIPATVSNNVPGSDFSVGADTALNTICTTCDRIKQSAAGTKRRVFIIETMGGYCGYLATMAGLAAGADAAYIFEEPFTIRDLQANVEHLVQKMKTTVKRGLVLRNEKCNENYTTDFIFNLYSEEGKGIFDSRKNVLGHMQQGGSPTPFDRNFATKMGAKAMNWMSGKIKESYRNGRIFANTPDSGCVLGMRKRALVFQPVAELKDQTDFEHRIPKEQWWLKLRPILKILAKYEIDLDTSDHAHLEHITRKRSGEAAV
# Excerpt: as §1, §2
# as §3, with “Assays for PFKM were performed at pH 7.0 due to the pH-dependence of ATP inhibition ([Trivedi and Danforth, 1966]).” left out
# [2] = PFKL−pocket, pH 7.5, 225 μM ATP
# [3] = PFKM wild type, pH 7.0, 250 μM ATP
smiles,measurement,setting,value
CC(=O)Nc1ccc2c(c1)OCc1cc(-c3ccccc3)nn1C2 [NA-5],"fold change of EC50,NA-5 of PFKL−pocket versus wild-type PFKL",[1],~ 30 fold
same,EC50,[1],0.615 ± 0.138 µM
"COc1ccccc1-c1cc2n(n1)Cc1ccc(NC(C)=O)cc1OC2 [LDC7559, reference compound]",activation of PFKM,human PFKM,failed to activate
"O=C(CO)[C@@H](O)[C@H](O)[C@H](O)COP(=O)(O)O [F6P, fructose 6-phosphate]","Vmax,F6P",[1]; [2],14.68 ± 0.98 micromoles FBP per minute per milligram PFK1
same,hF6P (Hill coefficient),[1]; [2],3.26 ± 0.48
same,"Vmax,F6P",human PFKM; [3],19.14 ± 0.74 micromoles FBP per minute per milligram PFK1
same,hF6P (Hill coefficient),human PFKM; [3],4.62 ± 1.38
CC(=O)Nc1ccc2c(c1)OCc1cc(-c3ccccc3C#CCCCO)nn1C2 [NA-11],EC50,[1],0.167 ± 0.0278 µM
same,activation of PFKM,human PFKM,failed to activate
